Measured values: US20040138198A1, “Vasectomy procedure and related kit” (priority 2001, published 2004)

Legend:
vasa deferentia = settings: rat, in vivo
Procedure: A dose ranging non-GLP study was conducted in rats to determine the local toxic effect of diltiazem on vasa deferentia.

sperm in vas = test: non-GLP study, in vivo effect on motility and viability of sperm in vas; settings: injection, 0.2 mg/kg body weight; saline injected controls 35%
Source text: In another non-GLP study, the in vivo effect of diltiazem on motility and viability of sperm in vas was observed.

COc1ccc([C@@H]2Sc3ccccc3N(CCN(C)C)C(=O)[C@@H]2OC(C)=O)cc1 [diltiazem]
changes in the histology of the vas (vasa deferentia; 0.2 mg/kg): did not cause any changes in the histology of the vas | effect on the vas (vasa deferentia; 2 mg/kg): no effect on the vas | mortality of rats (vasa deferentia; 50 mg/kg): no mortality | percentage of non-viable sperm (sperm in vas): 92%
